In the experiment the target is T1, purified nitrilase (Comamonas testosteroni, UniProt Q59329).
T1 construct: about 280 kDa oligomer of about 38 kDa subunits
Description: Relative activity of the purified nitrilase on various nitriles. It is filed as biochemical, Comamonas testosteroni sp. To be noted: acetate buffer 10 mM, pH 4; substrate 10 mM; 25° C. As to the method:
The activities of the purified nitrilase were measured on adiponitrile, 5-cyanovaleramide, 5-cyanovaleric acid, benzonitrile, propionitrile and acrylonitrile.
COMMON CONDITIONS: acetate buffer=10 mM, pH 4; substrate=10 mM; volume=3 ml; T=25° C.; reaction time=1 or 3 h; proteins: from 5 to 30 μg/ml.

T1 sequence (Q59329 entry or part of it): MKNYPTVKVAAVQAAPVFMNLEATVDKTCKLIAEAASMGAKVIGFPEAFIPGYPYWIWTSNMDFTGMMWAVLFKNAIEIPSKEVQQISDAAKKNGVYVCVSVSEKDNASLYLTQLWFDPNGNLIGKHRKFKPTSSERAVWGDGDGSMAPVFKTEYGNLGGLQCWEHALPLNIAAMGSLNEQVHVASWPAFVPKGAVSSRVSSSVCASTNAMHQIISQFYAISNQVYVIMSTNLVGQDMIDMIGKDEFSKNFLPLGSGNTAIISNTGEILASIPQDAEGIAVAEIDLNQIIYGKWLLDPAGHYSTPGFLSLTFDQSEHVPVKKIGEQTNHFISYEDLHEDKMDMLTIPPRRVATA

As for `N#CCCCCC#N` [Adiponitrile, adiponitrile], the “RELATIVE ACTIVITY” value is recorded as 100%.

Source of the values: US5635391A, “Isolated DNA encoding a nitrilase polypeptide, hosts containing, and expression thereof optionally assisted by a E. coli GroE chaperone polypeptide” (priority 1992, dated 1997).
